# Reference: PMC9570995, “Design, Synthesis, and Biological Evaluation of Novel Dihydropyridine and Pyridine Analogs as Potent Human Tissue Nonspecific Alkaline Phosphatase Inhibitors with Anticancer Activity: ROS and DNA Damage-Induced Apoptosis” (Molecules, 2022)
# Read-outs that look alike come from different tables or passages of the source.
# Key:
# [1] = tested on: Cervical Cancer (HeLa) Cells; test: MTT cell viability assay, HeLa; format: cell-based; settings: for IC50: unit given, read-out: Cervical Cancer (HeLa) Cells IC50 Values ± SEM
# Excerpt: (§1) An MTT assay was used to determine the viability of the cells under examination in the desired medium. The mitochondrial dehydrogenase enzyme of the viable cells has a key role in the conversion of the yellow water-soluble substrate 3-(4,5-dimethylthiazol-2-y1)-2,5 diphenyl tetrazolium bromide (MTT) into a dark blue formazan product that is insoluble in water. The anticancer activity of the novel synthetic derivatives (4a–4k) was investigated through an MTT assay, with small modifications following the already published protocols against cancer cell lines (HeLa and MCF-7), using cisplatin as a reference drug. The cytotoxic effect of the tested compounds at 100 µM concentration was determined and represented as the percent growth inhibition compared with the untreated control cells. The first series comprised dihydropyridines analogous from 4a–4f with various substitution patterns on the phenyl ring. […] It is presumed that the 1-naphthyl containing compound 4c was locked in a configuration that is not favorable for an interaction with amino acid residues.
# (§2) The anti-proliferative activity of the synthesized compounds was determined in MCF-7 and HeLa cells by an MTT cell viability assay, as described earlier. Briefly, we seeded 1 × 10^4 cells/well in a sterile 96-well culture microtiter plate and incubated them in a 5% CO2 incubator at 37 °C for 24 h. […] After 24 h, the cells were treated with 0.2 mg/mL of MTT reagent for 4 h. We added 10% acidified SDS (sodium dodecyl sulfate) solubilizing solution in propanol (1:1) to solubilize the formazan crystals. After 30 min at 37 °C, the plate was placed on a gyratory shaker to completely dissolve the formazan crystals. The plate was placed on a microplate reader to measure the optical density at 570 nm. The IC50 values were calculated from three independent experiments as previously reported.
# [2] = tested on: Breast Cancer (MCF-7) Cells; test: MTT cell viability assay, MCF-7; format: cell-based; settings: for inhibition at 100 µM / IC50: Homo sapiens; for inhibition at 100 µM: MCF7, 100 µM, 24 h; for IC50: MCF7, unit given, read-out: Breast Cancer (MCF-7) Cells IC50 Values ± SEM
# Excerpt: as §1, §2
# [3] = biological target: T1, human tissue nonspecific alkaline phosphatase (h-TNAP) (Homo sapiens, UniProt P05186); test: Alkaline phosphatase inhibition assay (p-NPP substrate); format: biochemical; settings: for inhibition at 1000 µM: compounds tested at 1 mM
# T1 sequence (P05186 18-524): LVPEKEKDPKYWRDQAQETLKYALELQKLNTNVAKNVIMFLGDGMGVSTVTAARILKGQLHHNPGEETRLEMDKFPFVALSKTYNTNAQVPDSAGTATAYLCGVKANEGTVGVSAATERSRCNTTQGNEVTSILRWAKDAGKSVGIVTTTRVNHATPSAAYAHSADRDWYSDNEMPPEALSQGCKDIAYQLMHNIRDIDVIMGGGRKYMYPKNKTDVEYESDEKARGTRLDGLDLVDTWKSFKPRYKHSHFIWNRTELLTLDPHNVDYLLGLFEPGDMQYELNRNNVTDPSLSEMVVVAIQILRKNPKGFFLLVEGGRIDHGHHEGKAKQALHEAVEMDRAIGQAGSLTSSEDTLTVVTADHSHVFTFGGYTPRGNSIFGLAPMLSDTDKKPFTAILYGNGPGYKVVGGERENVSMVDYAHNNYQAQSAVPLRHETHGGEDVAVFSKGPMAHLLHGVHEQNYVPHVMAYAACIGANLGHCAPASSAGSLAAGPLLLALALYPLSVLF
# Procedure: The newly synthesized compounds were tested against human tissue nonspecific alkaline phosphatase (h-TNAP). The compounds were initially tested against the h-TNAP enzymes at 1 mM concentration. The assay buffer (pH 9.5) constituted of 50% glycerol, followed by tris-hydrochloride (50.0 mM), MgCl2 (5.0 mM), and ZnCl2 (0.1 mM) in the solution. The enzyme substrate p-nitrophenyl phosphate (p-NPP) and all the required test compounds were diluted to the required concentration by a dilution buffer method. In a 96-well plate, the assay was started by adding 70 µL of assay buffer followed by 10.0 µL of the test compound (from 1 mM), 10.0 µL of the enzyme (0.5 µL/mL) and then subsequently incubating at 37 °C for 10 min. The reaction was initiated with the addition of 10.0 µL of substrate (5.0 mM p-NPP) into each well and incubated for an additional 30 min.
# Percent inhibition was calculated by the formula:% Inhibition = [100 − (abs of test comp/abs of control) × 100]
# [4] = Homo sapiens, HeLa, 100 µM, 24 h
# [5] = Table 2, read-out: Alkaline Phosphatase (h-TNAP) percent inhibition
# [6] = percent inhibition of h-TNAP, Table 1 and text, read-out: Inhibitory Potential
# [7] = Table 2, unit given in Table 1, read-out: Alkaline Phosphatase (h-TNAP) IC50
# [8] = h-TNAP, assay buffer pH 9.5, Table 1 and text, read-out: IC50 + SEM
Compound,"Cervical Cancer (HeLa) Cells % Inhibition (at 100 µM) ([1]; 100 µM, 24 h) [%]",IC50 [1] [µM],activity against HeLa in words [1],"inhibition at 100 µM [1, 4] [%]",activity against MCF-7 in words [2],inhibition at 100 µM [2] [%],activity against h-TNAP in words [3],"inhibition at 1000 µM [3, 5] [%]","inhibition at 1000 µM [3, 6] [%]","IC50 ([1]; Homo sapiens, HeLa) [µM]","IC50 [3, 7] [µM]","IC50 [3, 8] [µM]",IC50 [2] [µM]
"N.N.[Cl][Pt][Cl] [Cisplatin, reference compound]",98.32,11.3 ± 0.78,,,,,,,,,,,
"CSc1ccc(C2C(C#N)=C(N)N(Cc3ccccc3)C(N)=C2C#N)cc1 [Compound 4a, 2,6-Diamino-1-benzyl-4-(4-(methylthio)phenyl)-1,4-dihydropyridine-3,5-dicarbonitrile]",,,least potency,7.71,least potency,37.9,least activity,21.1,20.9,,,,
"CC(C)c1ccc(C2C(C#N)=C(N)N(Cc3ccccc3)C(N)=C2C#N)cc1 [Compound 4b, 2,6-Diamino-1-benzyl-4-(4-isopropylphenyl)-1,4-dihydropyridine-3,5-dicarbonitrile]",,,least potency,11,least potency,41.8,least activity,28.3,28.3,,,,
"N#CC1=C(N)N(Cc2ccccc2)C(N)=C(C#N)C1c1cccc2ccccc12 [Compound 4c, 2,6-Diamino-1-benzyl-4-(naphthalen-1-yl)-1,4-dihydropyridine-3,5-dicarbonitrile]",,,inactive,21.3,inactive,23.1,,26.2,26.2,,,,
"COc1ccc(C2C(C#N)=C(N)N(Cc3ccccc3)C(N)=C2C#N)c(OC)c1OC [Compound 4e, 2,6-Diamino-1-benzyl-4-(2,3,4-trimethoxyphenyl)-1,4-dihydropyridine-3,5-dicarbonitrile]",,,,60,,5.73,,,,69.47 ± 0.07,8.8 ± 0.53,8.8 ± 0.53,
"COc1c(O)cccc1C1C(C#N)=C(N)N(Cc2ccccc2)C(N)=C1C#N [Compound 4f, 2,6-Diamino-1-benzyl-4-(3-hydroxy-2-methoxyphenyl)-1,4-dihydropyridine-3,5-dicarbonitrile]",,,,77.3,,61.7,,,,57 ± 7.1,2.25 ± 0.16,2.25 ± 0.16,77 ± 8.3
"CCOc1ccc(-c2c(C#N)c(N)nc(NCCc3ccc(S(N)(=O)=O)cc3)c2C#N)cc1 [Compound 4g, 4-(2-((6-Amino-3,5-dicyano-4-(4-ethoxyphenyl)pyridine-2yl)amino)ethyl)benzene sulfonamide]",,,,67.1,,53.3,,,,63 ± 4.1,0.49 ± 0.025,0.49 ± 0.025,98 ± 5.7
"CSc1ccc(-c2c(C#N)c(N)nc(NCCc3ccc(S(N)(=O)=O)cc3)c2C#N)cc1 [Compound 4h, 4-(2-((6-Amino-3,5-dicyano-4-(4-(methylthio)phenyl)pyridin-2-yl)amino)ethyl)benzene sulfonamide]",,,,38.4,,57.2,least inhibitory activity,37.6,37.6,,,,109.9 ± 1.07
CC(C)c1ccc(-c2c(C#N)c(N)nc(NCCc3ccc(S(N)(=O)=O)cc3)c2C#N)cc1 [Compound 4i],,,,39.3,,34.6,least inhibitory activity,31.7,31.7,,,,
"CCOc1ccc(-c2c(C#N)c(N)nc(NCCCn3ccnc3)c2C#N)cc1 [Compound 4j, 2-((3-(1H-Imidazol-1-yl)propyl)amino)-6-amino-4-(4-ethoxyphenyl)pyridine-3,5-dicarbonitrile]",,,,77.8,,72.4,,,,57 ± 1.5,1.22 ± 0.12,1.22 ± 0.12,54 ± 1.7
"CC(C)c1ccc(-c2c(C#N)c(N)nc(NCCCn3ccnc3)c2C#N)cc1 [Compound 4k, 2-((3-(1H-Imidazol-1-yl)propyl)amino)-6-amino-4-(4-(isopropyle)phenyl)pyridine-3,5-dicarbonitrile]",,,,63.8,,40.1,comparatively inactive,36.5,36.5,66 ± 1.97,,,
"COc1cccc2c1C(=O)c1c(O)c3c(c(O)c1C2=O)C[C@@](O)(C(=O)CO)C[C@@H]3O[C@H]1C[C@H](N)[C@H](O)[C@H](C)O1 [Doxorubicin, reference compound]",,,,,,98.9,,,,,,,2.81 ± 0.39
